Reference: US9580487B2, “Method of treating stomach or bowel-related disorders by administering glucagon-like-peptide-2 (GLP-2) analogues” (Zealand Pharma A/S, priority 2005, dated 2017)
Entries after “also recorded” stand apart in the source; their conditions may differ. No end group written: not given here.

Key:
[1] = tested on: male Sprague Dawley rats treated with indomethacin; assay: Indomethacin-induced small intestinal ulcers (model of Crohn's disease), extent of ulceration; format: in vivo; settings: for Estimated extent of ulceration: indomethacin alone 333±21 mm^2; for Effect on ulceration compared with prednisolone: highest dose 200 nmol/kg vs prednisolone 10 mg/kg
Description: FIG. 13 is a graph illustrating the effect of compound 1848 (SEQ ID NO:36) on small intestinal ulcers induced by indomethacin. Male Sprague Dawley rats were treated with vehicle (saline; group 1) or indomethacin (7 mg/kg s.c., once daily for two days; groups 2-7). Indomethacin was given alone (group 2) or in combination with prednisolone (10 mg/kg s.c.; group 3) or with 8, 40, or 200 nmol/kg compound 1848 (SEQ ID NO:36) s.c. […] (groups 4-6). Finally, one group of rats was treated with combination treatment of prednisolone (10 mg/kg s.c.) and compound 1848 (SEQ ID NO:36), 200 nmol/kg s.c. once daily (group 7). Treatment with compound 1848 (SEQ ID NO:36) was initiated 4 days prior to indomethacin and continued during the two days of indomethacin treatment. On day 3, rats were sacrificed and upon necropsy, the small intestine was gently flushed with 10% formalin and filled with formalin for a period of 5 minutes, after which the intestine was cut open along the antimesenteric margin and suspended on a polypropylene plate. Any remaining intestinal contents were carefully removed with a pair of tweezers. After fixation for another 24 hours at room temperature, the tissue was rinsed in Milli-Q water and surface-stained for 20 minutes with Alcian Green 3BX (Chroma) prepared as a 0.5% solution in 1% acetic acid (Bie & Berntsen). After removal of excess staining solution with Milli-Q water the tissue preparation was transferred to 70% alcohol and analyzed using a stereomicroscope at low magnification (×7). Starting at the pylorus, the small intestine was scanned and the shape (circular vs. linear) and size (circular ulcers: diameter, linear ulcers: length×width) of all ulcers was measured using a standard ruler (resolution: 0.5 mm). An ulcer was defined as an area, which lacked epithelial surface. In healing ulcers only the area that still lacked epithelial surface was regarded an ulcer even if the villus structure was still missing in a larger area. All analysis was performed in a blinded manner. […] Treatment with prednisolone caused a significant reduction in the extent of ulceration by app. 29%. […] Values are means±SEM. * P<0.05 vs. indomethacin (group 2). ^#P<0.05 vs. prednisolone (group 3).
Crohn's disease is a chronic disease that causes episodic inflammation of the small intestine. The effect of the GLP-2 analogue 1848 (SEQ ID NO:36) on small intestinal inflammation in an indomethacin-induced model of Crohn's disease was investigated. We have previously shown that administration of indomethacin (s.c, once daily for 2 days) induces small intestinal inflammation characterized by ulcerations and, increases in the pro-inflammatory cytokine, tumour necrosis factor alpha (TNF-α).
To determine the effect of ZP1848 (SEQ ID NO:36) on ulceration 1848 (SEQ ID NO:36) (8, 40 and 200 nmol/kg, s.c, twice daily (9:00 and 16:00)) was given for 4 days prior to the first dose of indomethacin and for an additional two days together with indomethacin. The corticosteroid, prednisolone (10 mg/kg, p.o) was used as a positive control since corticosteroids are commonly used in the treatment of active inflammation in Crohn's disease. In addition a group of animals were given both 1848 (SEQ ID NO:36) (200 nmol/kg) and prednisolone to determine the effects of a combination treatment. Twenty four hours after the last dose of 1848 (SEQ ID NO:36) had been given the animals were sacrificed the small intestine was gently flushed clean and fixed. To determine the extent of ulceration the intestine was cut open along the antimesenteric margin, suspended on a polypropylene plate and surface-stained with Alcian Green 3BX. Starting at the pylorus, the small intestine was scanned and the shape (circular vs. linear) and size (circular ulcers: diameter, linear ulcers: length×width) of all ulcers was measured using a standard ruler (resolution: 0.5 mm). An ulcer was defined as an area, which lacked epithelial surface. […]

[2] = tested on: Sprague Dawley rats; assay: Crypt-villus length and muscularis thickness in the small intestine of SD rats; format: in vivo
Description: FIG. 12 is a set of graphs showing the effect of compound 1846 (SEQ ID NO:34) on epithelial crypt-villus height (FIG. 12A) and muscular thickness (FIG. 12B) in the jejunum (i.e., mid section of the small intestine). Sprague Dawley rats were treated intravenously with compound 1846 (SEQ ID NO:34) (0.62, 3.41 or 6.2 mg/kg once daily) for 5 days (n=6/dose group). Then the animals were sacrificed and small intestinal biopsies (1 cm) were collected 25 cm distal from the pyloric sphincter. The biopsies were fixed, embedded in paraffin, sectioned and stained with haematoxylin and eosin. Stained sections were examined under a microscope and crypt depth, villus height, crypt-villus length and muscularis thickness measured. […] Values are means±SEM. * P<0.05, relative to vehicle controls (0 mg/kg/d).
The effect of the clinical candidate, 1846 (SEQ ID NO:34), on crypt-villus length and muscularis thickness in the small intestine of SD rats was investigated. 1846 (SEQ ID NO:34) (0.62, 3.41 or 6.2 mg/kg/day, n=6 rats/dose group) was administered as an i.v. bolus, once daily for five consecutive days. Twenty-four hours after the last dose had been administered the rats were sacrificed and a 1 cm biopsy was excised from the jejunum (30 cm distal from the gastric duodenal junction) and from the ileum (30 cm proximal from the ileocaecal junction) for histological processing.

Row | Substance | Estimated extent of ulceration ([1]; 8 nmol/kg s.c.) [mm^2] | Estimated extent of ulceration ([1]; 40 nmol/kg s.c.) [mm^2] | Ulceration: addition of prednisolone to high dose compound ([1]; 200 nmol/kg plus prednisolone 10 mg/kg) | Estimated extent of ulceration ([1]; 200 nmol/kg s.c.) [mm^2] | Prevention of indomethacin-induced ulceration (in words) ([1]; 8, 40, 200 nmol/kg) | Effect on ulceration compared with prednisolone [1] | Reduction of total ulceration ([1]; highest dose (200 nmol/kg) vs indomethacin alone) [%] | Muscular thickness of the jejunum ([2]; 0.62, 3.41 or 6.2 mg/kg i.v. once daily for 5 days) | Crypt-villus length ([2]; 0.62, 3.41 or 6.2 mg/kg i.v. once daily for 5 days, jejunum (and ileum)) | Muscularis thickness in the ileum ([2]; 0.62, 3.41 or 6.2 mg/kg/day i.v. for five days)
1 | [Gly2, Glu3, Thr5, Ser8, Leu10, Ala11,16,24,28]hGLP-2(1-33)-(Lys)6-NH2 (HGEGTFSSELATILDALAARDFIAWLIATKITDKKKKKK-NH2) [Compound 1848] | 230±12 | 216±17 | did not produced any additional effect | 178±17 | prevented indomethacin-induced ulceration in a dose-dependent fashion | more effective than the positive control, prednisolone | ~50 | – | – | –
2 | [Gly2, Glu3, Ser8,11, Leu10, Ala16,24,28]hGLP-2(1-33)-(Lys)6-NH2 (HGEGSFSSELSTILDALAARDFIAWLIATKITDKKKKKK-NH2) [Compound 1846] | – | – | – | – | – | greater than the effect of prednisolone | – | no effect on the muscular thickness of the jejunum | dose-dependent increases in crypt-villus length; also recorded: dose-dependently increased mean crypt-villus length in the jejunum and ileum | dose-dependently increased
